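Method: 48-hour compound exposure of cells in 96-well plates, five concentrations, linear interpolation of endpoints. Abbreviation: GI50, concentration required for 50% inhibition of growth.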 Active and inactive are the calls of the source. Rule as the data show it: active = GI50 up to about 1.1 µM and inactive = higher.
What was measured:
Assay in all cases: NCI-60 cell line screen, 48 h
UACC-257 = tested on: UACC-257
OVCAR-8 = tested on: OVCAR-8
OVCAR-3 = tested on: OVCAR-3
MOLT-4 = tested on: MOLT-4
OVCAR-5 = tested on: OVCAR-5
IGROV-1 = tested on: IGROV-1
CCRF-CEM = tested on: CCRF-CEM
SK-MEL-28 = tested on: SK-MEL-28
NCI-H226 = tested on: NCI-H226
LOX IMVI = tested on: LOX IMVI
NCI-H460 = tested on: NCI-H460
EKVX = tested on: EKVX
T47D = tested on: T47D
786-0 = tested on: 786-0
NCI-H522 = tested on: NCI-H522
NCI/ADR-RES = tested on: NCI/ADR-RES
MCF7 = tested on: MCF7
SF-539 = tested on: SF-539
NCI-H23 = tested on: NCI-H23
ACHN = tested on: ACHN

Measured: GI50

Cc1ccc(-c2c(-c3ccccc3)[nH]c(C)c2C(=O)ONC(=O)c2ccccc2)cc1
inactive: UACC-257 13.7 µM | OVCAR-8 4.62 µM | OVCAR-3 4.49 µM | MOLT-4 2.74 µM | OVCAR-5 8.65 µM | IGROV-1 1.46 µM | CCRF-CEM 2.97 µM | SK-MEL-28 12.1 µM | NCI-H226 7.24 µM | LOX IMVI 1.75 µM | NCI-H460 2.17 µM | EKVX 7.28 µM | T47D 4.6 µM | 786-0 3.03 µM | NCI-H522 2.31 µM | NCI/ADR-RES 4.65 µM | MCF7 4.84 µM | SF-539 2.97 µM | NCI-H23 5.53 µM | ACHN 1.91 µM

COC1=C2C[C@](OC)(C#CC=CC#CC2O)CC1(C)C (stereo not given in full)
inactive: UACC-257 > 100 µM | OVCAR-8 > 100 µM | OVCAR-3 > 100 µM | MOLT-4 49 µM | OVCAR-5 > 100 µM | IGROV-1 18.2 µM | CCRF-CEM 34.4 µM | SK-MEL-28 > 100 µM | NCI-H226 > 100 µM | LOX IMVI > 100 µM | NCI-H460 > 100 µM | EKVX > 100 µM | T47D > 100 µM | 786-0 > 100 µM | NCI-H522 > 100 µM | NCI/ADR-RES > 100 µM | MCF7 > 100 µM | SF-539 > 100 µM | NCI-H23 > 100 µM | ACHN > 100 µM

From ChEMBL document CHEMBL1201862, “PubChem BioAssay data set” (2004)
